We go through 5 molecules from patent US12274678B2, “Cannabinoids and uses thereof” (TECHNION RESEARCH & DEVELOPMENT FOUNDATION LIMITED, priority 2019, dated 2025).

Common to all, as to type: cell-based, human
The subject of assay [1] is MOLT-4 cells. Briefly: AlamarBlue cell viability assay, MOLT-4. Particulars: CBD, CBDV, CF1 separately and in combinations, 24 h. The procedure:
(§1) Cells were cultured in 96-well plates. At 100,000 cells/well the media was replaced with RPMI containing 0.5% FBS and different Cannabis extracts. Extracts were added in triplicate at a concentration of 1-5 μg/mL. DMSO was used as the control and applied in the same amount as in the diluted extracts. An alamarBlue® reagent was used to quantitate viability (according to the manufacturer's Instructions). Viability was measured following 24 h of incubation using fluorescence spectrophotometry at excitation and emission wavelengths of 560 and 590 nm, respectively. Viability was calculated as percent reduction between treated and control cells.
For orientation: Alamar Blue is a resazurin reagent that responds to reducing activity.

The test system of assay [2] is CCRF-CEM cells. Briefly: AlamarBlue cell viability assay, CCRF-CEM. Particulars: CBD, CBDV, CF1 separately and in combinations, 24 h. The protocol: as §1
Assay [3] has as its system NICD. Briefly: Immunoblotting of NICD protein in cells. Particulars: MOLT-4 cells, 3 μg/mL, 24 h. The procedure: (§2) Cell Lysis and Western Blot Analyses
Following treatment, cells were solubilized in radioimmunoprecipitation assay buffer (RIPA) (Sigma-Aldrich, R0278) and the protein concentration in lysates were determined using a Bradford reagent (Sigma-Aldrich, B6916). Equal amounts of protein were resolved by Novex™ 4-20% Tris-Glycine Mini Gels (Thermo Fisher Scientific, XP04200BOX) and electrophoretically transferred to a nitrocellulose membrane (Bio-Rad, 1704159S). Membranes were blocked with TBS 0.1% Tween 20 buffer containing 5% bovine serum albumin (Sigma, A7906) for 1 h. The blots were then incubated overnight at 4° C. with Full Notch1 (Millipure ABS90), from Cell Signaling Technology Notch1 V1744 (4147S), c-Myc (13987), Hes1 (11988), anti-cleaved caspase-3 antibody (9664), Phospho-C-Jun (3270), C-Jun (9165), and β-tubulin (clone D3U1W, 86298) and Chac1 (ab76386) from abcam. This was followed by incubation with horseradish peroxidase-labeled matching secondary antibodies. Immunoreactive bands were detected by Luminata™ HRP substrate (Millipore, WBLUR0500) and visualized using a MicroChemi imager (DNR Bioimaging Systems).
(A western blot detects proteins with antibodies after separation by electrophoresis.)

For assay [4], the system named is NICD. Briefly: Western blot of NICD in Molt-4 cells pretreated with proteasome inhibitors, then Extract 12. Particulars: MOLT-4 cells pretreated 1 h (MG132 2.5-7.5 μM; MG101 10 μM), then Extract 12 5 μg/mL 3 h. The protocol:
FIG. 14 is a micrograph of a western blot analysis of NICD in Molt-4 cells pretreated with MG132 (proteasome inhibitor; 0, 2.5 μM, 5 μM, 7.5 μM) for 1 h and then treated with vehicle or Extract 12 (5 μg/mL) for 3 h. β-tubulin served as a loading control.
FIG. 15 is a micrograph of western blot analysis of NICD in Molt-4 cells pretreated with MG101 (proteasome inhibitor; 0, 10 μM) for 1 h and then treated with vehicle or Extract 12 (5 μg/mL) for 3 h. β-tubulin served as a loading control.
as §2
Following treatment, cells were solubilized in radioimmunoprecipitation assay buffer (RIPA) (Sigma-Aldrich, R0278) and the protein concentration in lysates were determined using a Bradford reagent (Sigma-Aldrich, B6916). Equal amounts of protein were resolved by Novex™ 4-20% Tris-Glycine Mini Gels (Thermo Fisher Scientific, XP04200BOX) and electrophoretically transferred to a nitrocellulose membrane (Bio-Rad, 1704159S). Membranes were blocked with TBS 0.1% Tween 20 buffer containing 5% bovine serum albumin (Sigma, A7906) for 1 h. […] Immunoreactive bands were detected by Luminata™ HRP substrate (Millipore, WBLUR0500) and visualized using a MicroChemi imager (DNR Bioimaging Systems).

Each structure is given as a SMILES string. Where a SMILES comes first, the peptide text is derived from it. [ ]: non-standard residue; d: D form. The star is where a group is joined. Nle = CCCC[C@H](N)C(=O)O; Cbz = O=C(OCc1ccccc1)*

As to `C=C(C)[C@@H]1CCC(C)=C[C@H]1c1c(O)cc(CCC)cc1O` [CBDV, cannabidivarin], the “MOLT-4 cell death / cell apoptosis in viability assay of cannabinoids” value (shortened to “MOLT-4 cell death / cell apoptosis”) in assay [1] is recorded as “produced cell apoptosis”. The “CCRF-CEM cell apoptosis in viability assay of cannabinoids” value (from here on “CCRF-CEM cell apoptosis”) in assay [2] is given as “produced cell apoptosis”. The “NICD levels after cannabinoids” value in assay [3] is “decreasing NICD levels”.
As to `CC(C)C[C@@H](C=O)NC(=O)[C@H](CC(C)C)NC(=O)[C@H](CC(C)C)NC(=O)OCc1ccccc1` [MG132] (Cbz-Leu-Leu-Leu-aldehyde), the “restoration of NICD protein level by proteasome inhibition” value in assay [4] is recorded as “did not restore”.
Consider `C=C(C)[C@@H]1CCC(C)=C[C@H]1c1c(O)cc(CCCCC)cc1O` [CBD, cannabidiol, reference compound], for which, in assay [1], the “MOLT-4 cell death / cell apoptosis” value is recorded as “produced cell apoptosis”. In assay [2], the “CCRF-CEM cell apoptosis” value was “produced cell apoptosis”. In addition, the “NICD levels after cannabinoids” value in assay [3] was “decreasing NICD levels”.
For `CCCCCc1cc(O)c(C2C=C(C)CCC2C(C)(C)O)c(O)c1` [CF1, 1,3-Benzenediol, 2-[(1R,6R)-6-(1-hydroxy-1-methylethyl)-3-methyl-2cyclohexen-1-yl]-5-pentyl], the “MOLT-4 cell death / cell apoptosis” value in assay [1] is “produced cell apoptosis”. Further, in assay [2], the “CCRF-CEM cell apoptosis” value is listed as “produced cell apoptosis”. The “NICD levels after cannabinoids” value in assay [3] was “decreasing NICD levels”.
Turning to `CCCC[C@@H](C=O)NC(=O)[C@H](CC(C)C)NC(=O)[C@H](CC(C)C)NC(C)=O` [MG101] (Ac-Leu-Leu-[Nle]-aldehyde), in assay [4], the “restoration of NICD protein level by proteasome inhibition” value is “did not restore”.
